In patent US20220144853A1, “IMIDAZOLINE DERIVATIVES AS CXCR4 MODULATORS” (Université de Paris, priority 2019, published 2022):
Where a name gives a salt, the structure may show the parent alone.

Test system: IFN production by activated PBMCs
Experiment: IFN production by R848-activated PBMCs from healthy donors, twINNE reporter cell line
Type: cell-based, human
Settings: Homo sapiens, PBMC, means of two results over 2 healthy donors, R848 5 μg/mL, IT1t: mean over all experiments, read-out: IC50 of anti-inflammatory activity (IFN production)
Procedure: 2) The blood from healthy donors was also obtained from “Etablissement Français du Sang” (convention #19/EFS/029), Paris, France.
In vitro experiments were performed using human peripheral blood mononuclear cells (PBMCs) isolated by density centrifugation from peripheral blood leukocyte separation medium, lymphoprep (Stemcell Technologies).
PBMCs were cultured in RPMI 1640 (Sigma-Aldrich, MO, USA) containing 10% heat-inactivated fetal bovine serum (Sigma-Aldrich, MO, USA) at 37° C./5% CO2.
2) The PBMCs used herein were prepared as described in part A “immune cells preparation”, section 2) above. PBMCs were seeded at 4.10^6/mL. […] Cells were then stimulated with the TLR7/8 agonist resiquimod—R848 (Sigma-Aldrich, MO, USA) at 5 μg/mL.
2) To quantify the secretion of functional IFN, a biological assay based on a stable cell line where luciferase reporter gene is controlled by five Interferon-Stimulated Response Elements (twINNE cell line) was used. It is important to note that the twINNE cell line is the same as the above mentioned STING-37 cell line but with constitutively expressed nanoluciferase. First, supernatants of R848-stimulated PBMCs (see part B, section 2) above) were harvested after 24 h of stimulation and frozen at −20° C. for storage. Then, supernatants were dispensed in culture wells of a 96-well plate containing 35.103 twINNE cells per well in Dulbecco's Modified Eagle's Medium supplemented with 10% Foetal Bovine Serum, 100 U/mL Penicillin and 100 μg/mL Streptomycin (1% Pen-Strep) and 1 mM glutamine (Sigma-Aldrich, MO, USA) at 37° C./5% […]. After 24 h of culture, luciferase activity was determined by adding 60 μL of Bright-Go reagents (Promega, Wisconsin, USA) to culture wells and measuring bioluminescence with EnSpire Multimode Plate Reader (PerkinElmer, Massachusetts, USA). When stated, for IC50 calculation, dose-response curves fitted using the nonlin fit (variable slope) analysis in GraphPad Prism software (GraphPad Software, California, USA).

Row | SMILES | IC50 [µM]
1 | C1=C(CSC2=NCC(Cc3ccccc3)N2)N2CCCN=C2S1 (stereo not shown) [Example 48, 3-(((5-benzyl-4,5-dihydro-1H-imidazol-2-yl)thio)methyl)-6,7-dihydro-5H-thiazolo[3,2-a]pyrimidine dihydrochloride] | ≤ 10
2 | CC(C)C1CN=C(SCC2=CSC3=NC(C)(C)CN23)N1 (stereo not shown) [Example 49, 3-(((5-isopropyl-4,5-dihydro-1H-imidazol-2-yl)thio)methyl)-6,6-dimethyl-5,6-dihydroimidazo[2,1-b]thiazole dihydrochloride] | 10 to 31
3 | CC1(C)CN=C(SCC2=CSC3=NC(c4ccccc4)CN23)N1 (stereo not shown) [Example 50, 3-(((5,5-dimethyl-4,5-dihydro-1H-imidazol-2-yl)thio)methyl)-6-phenyl-5,6-dihydroimidazo[2,1-b]thiazole dihydrochloride] | 10 to 31
4 | CCCCC1CN=C(SCC2=CSC3=NC(Cc4ccccc4)CN23)N1 (stereo not shown) [Example 51, 6-benzyl-3-(((5-butyl-4,5-dihydro-1H-imidazol-2-yl)thio)methyl)-5,6-dihydroinidazo[2,1-b]thiazole dihydrochloride] | ≤ 10
5 | CC(C)C1CN2C(CSC3=NCC(C)(C)N3)=CSC2=N1 (stereo not shown) [Example 52, 3-(((5,5-dimethyl-4,5-dihydro-1H-imidazol-2-yl)thio)methyl)-6-isopropyl-5,6-dihydroimidazo[2,1-b]thiazole dihydrochloride] | 10 to 31
6 | CC1(C)CN2C(CSC3=NCC(c4ccccc4)N3)=CSC2=N1 (stereo not shown) [Example 53, 6,6-dimethyl-3-(((4-phenyl-4,5-dihydro-1H-imidazol-2-yl)thio)methyl)-5,6-dihydroimidazo[2,1-b]thiazole dihydrochloride] | ≤ 10
7 | CN1CCCN=C1SCC1=CSC2=NC(C)(C)CN12 [Example 57, 6,6-dimethyl-3-(((1-methyl-1,4,5,6-tetrahydropyrimidin-2-yl)thio)methyl)-5,6-dihydroimidazo[2,1-b]thiazole dihydrochloride] | ≥ 31
8 | CC(C)[C@@H]1N=C(SCC2=CSC3=NC(C)(C)CN23)N[C@H]1C(C)C [Example 58, 3-((((4S,5S)-4,5-diisopropyl-4,5-dihydro-1H-imidazol-2-yl)thio)methyl)-6,6-dimethyl-5,6-dihydroimidazo[2,1-b]thiazole dihydrochloride] | ≥ 31
9 | C1=C(CSC2=NCC(Cc3ccccc3)N2)N2CC(Cc3ccccc3)N=C2S1 (stereo not shown) [Example 60, 6-benzyl-3-(((5-benzyl-4,5-dihydro-1H-imidazol-2-yl)thio)methyl)-5,6-dihydroimidazo[2,1-b]thiazole dihydrochloride] | ≤ 10
10 | C1=C(CSC2=N[C@@H]3CCCC[C@H]3N2)N2CC(Cc3ccccc3)N=C2S1 (stereo partly drawn) [Example 61, 6-benzyl-3-((((3aR,7aR)-3a,4,5,6,7,7a-hexahydro-1H-benzo[d]imidazol-2-yl)thio)methyl)-5,6-dihydroimidazo[2,1-b]thiazole dihydrochloride] | ≤ 10
11 | c1ccc(CC2CN=C(SCCc3cccnc3)N2)cc1 (stereo not shown) [Example 65, 3-(2-((5-benzyl-4,5-dihydro-1H-imidazol-2-yl)thio)ethyl)pyridine dihydrochloride] | ≥ 31
12 | CC1(C)CN2C(=N1)SC(I)=C2CSC1=NCC(C)(C)N1 [Example 66, 3-(((5,5-dimethyl-4,5-dihydro-1H-imidazol-2-yl)thio)methyl)-2-iodo-6,6-dimethyl-5,6-dihydroimidazo[2,1-b]thiazole dihydrochloride] | ≤ 10
13 | c1ccc(CC2CN=C(SCCCc3ccc4c(n3)NCCC4)N2)cc1 (stereo not shown) [Example 68, 7-(3-((5-benzyl-4,5-dihydro-1H-imidazol-2-yl)thio)propyl)-1,2,3,4-tetrahydro-1,8-naphthyridine dihydrochloride] | 10 to 31
14 | CC1(C)CN2C(=N1)SCC2SC1=NCC(C)(C)N1 (stereo not shown) [Example 70, 3-((5,5-dimethyl-4,5-dihydro-1H-imidazol-2-yl)thio)-6,6-dimethyl-2,3,5,6-tetrahydroimidazo[2,1-b]thiazole dihydrochloride] | ≥ 31

Test system: not given
Experiment: not given
Settings: not given

Row | SMILES | melting point [°C]
15 | CC1(C)CN2C(CSC3=NCC(C)(C)N3)=CSC2=N1 (as salt: hydrochloride) [Example 2, 3-(((5,5-dimethyl-4,5-dihydro-1H-imidazol-2-yl)thio)methyl)-6,6-dimethyl-5,6-dihydroimidazo[2,1-b]thiazole dihydrochloride] | > 250
16 | CC1(C)CN2C(CSC3=N[C@@H]4CCCC[C@H]4N3)=CSC2=N1 (as salt: hydrochloride) [Example 3, 3-((((3aR,7aR)-3a,4,5,6,7a-hexahydro-1H-benzo[d]imidazol-2-yl)thio)methyl)-6,6-dimethyl-5,6-dihydroimidazo[2,1-b]thiazole dihydrochloride] | 65 to 75
17 | CC1(C)CN2C(CSC3=N[C@H]4CCCC[C@@H]4N3)=CSC2=N1 (as salt: hydrochloride) [Example 4, 3-((((3aS,7aS)-3a,4,5,6,7,7a-hexahydro-1H-benzo[d]imidazol-2-yl)thio)methyl)-6,6-dimethyl-5,6-dihydroimidazo[2,1-b]thiazole dihydrochloride] | 167 to 175
18 | CC1(C)CN2C(CSC3=N[C@@H]4CCCC[C@@H]4N3)=CSC2=N1 (as salt: hydrochloride) [Example 5, 3-((((3R,7aS)-3a,4,5,6,7,7a-hexahydro-1H-benzo[d]imidazol-2-yl)thio)methyl)-6,6-dimethyl-5,6-dihydroimidazo[2,1-b]thiazole dihydrochloride] | > 250
19 | CC1(C)CN2C(CSC3=NCCN3)=CSC2=N1 (as salt: hydrochloride) [Example 8, 3-(((4,5-dihydro-1H-imidazol-2-yl)thio)methyl)-6,6-dimethyl-5,6-dihydroimidazo[2,1-b]thiazole dihydrochloride] | 140 to 144

More lines, now with the values ahead:

Row | melting point [°C] | SMILES
20 | 128 to 132 | CN1CCN=C1SCC1=CSC2=NC(C)(C)CN12 (as salt: hydrochloride) [Example 11, 6,6-dimethyl-3-(((1-methyl-4,5-dihydro-1H-imidazol-2-yl)thio)methyl)-5,6-dihydroimidazo[2,1-b]thiazole dihydrochloride]
21 | > 250 | CC1(C)CN2C(CSC3=NCCCCN3)=CSC2=N1 (as salt: hydrochloride) [Example 12, 6,6-dimethyl-3-(((4,5,6,7-tetrahydro-1H-1,3-diazepin-2-yl)thio)methyl)-5,6-dihydroimidazo[2,1-b]thiazole dihydrochloride]
22 | 95 to 104 | CCCCC1CN=C(SCC2=CSC3=NC(C)(C)CN23)N1 (stereo not shown) (as salt: hydrochloride) [Example 13, 3-(((5-butyl-4,5-dihydro-1H-imidazol-2-yl)thio)methyl)-6,6-dimethyl-5,6-dihydroimidazo[2,1-b]thiazole dihydrochloride]
23 | 242 to 245 | CC1(C)CN=C(SCC2=CSC3=NCCCN23)N1 (as salt: hydrochloride) [Example 14, 3-(((5,5-dimethyl-4,5-dihydro-1H-imidazol-2-yl)thio)methyl)-6,7-dihydro-5H-thiazolo[3,2-a]pyrimidine dihydrochloride]
24 | 244 to 247 | CC1(C)CN=C(SCC2=CSC3=NCCCCN23)N1 (as salt: hydrochloride) [Example 15, 3-(((5,5-dimethyl-4,5-dihydro-1H-imidazol-2-yl)thio)methyl)-5,6,7,8-tetrahydrothiazolo[3,2-a][1,3]diazepine dihydrochloride]
25 | 185 to 205 | CC1(C)CN2C(CSC3=NC(C)(C)C(C)(C)N3)=CSC2=N1 (as salt: hydrochloride) [Example 16, 6,6-dimethyl-3-(((4,4,5,5-tetramethyl-4,5-dihydro-1H-imidazol-2-yl)thio)methyl)-5,6-dihydroimidazo[2,1-b]thiazole dihydrochloride]
26 | 83 to 103 | CC1(C)CN2C(CSC3=NCC(Cc4ccccc4)N3)=CSC2=N1 (stereo not shown) (as salt: hydrochloride) [Example 17, 3-(((5-benzyl-4,5-dihydro-1H-imidazol-2-yl)thio)methyl)-6,6-dimethyl-5,6-dihydroimidazo[2,1-b]thiazole dihydrochloride]
27 | 63 to 74 | CC1(C)CN=C(SCC2=CSC3=NC(Cc4ccccc4)CN23)N1 (stereo not shown) (as salt: hydrochloride) [Example 18, 6-benzyl-3-(((5,5-dimethyl-4,5-dihydro-1H-imidazol-2-yl)thio)methyl)-5,6-dihydroimidazo[2,1-b]thiazole dihydrochloride]
28 | 210 to 218 | CCCCC1CN2C(CSC3=NCC(C)(C)N3)=CSC2=N1 (stereo not shown) (as salt: hydrochloride) [Example 19, 6-butyl-3-(((4,4-dimethyl-4,5-dihydro-1H-imidazol-2-yl)thio)methyl)-5,6-dihydroinidazo[2,1-b]thiazole dihydrochloride]
